Legend:
MthNAG [1] = biological target: T1, MthNAG (Thermothelomyces thermophilus, UniProt G2Q2L6); assay: substrate inhibition kinetics, released p-nitrophenol at […] nm; format: biochemical; conditions: citrate-phosphate buffer 0.1 M, pH 4, 50 °C
T1 construct: gene MYCTH_2294755; full-length GH20 secreted enzyme, 582-residue precursor with 21-residue signal peptide; homologously overexpressed in M. thermophila C1, purified by IEX and SEC, no tag told; most similar to XP_003658680 of strain ATCC 42464
T1 sequence (G2Q2L6 22-582): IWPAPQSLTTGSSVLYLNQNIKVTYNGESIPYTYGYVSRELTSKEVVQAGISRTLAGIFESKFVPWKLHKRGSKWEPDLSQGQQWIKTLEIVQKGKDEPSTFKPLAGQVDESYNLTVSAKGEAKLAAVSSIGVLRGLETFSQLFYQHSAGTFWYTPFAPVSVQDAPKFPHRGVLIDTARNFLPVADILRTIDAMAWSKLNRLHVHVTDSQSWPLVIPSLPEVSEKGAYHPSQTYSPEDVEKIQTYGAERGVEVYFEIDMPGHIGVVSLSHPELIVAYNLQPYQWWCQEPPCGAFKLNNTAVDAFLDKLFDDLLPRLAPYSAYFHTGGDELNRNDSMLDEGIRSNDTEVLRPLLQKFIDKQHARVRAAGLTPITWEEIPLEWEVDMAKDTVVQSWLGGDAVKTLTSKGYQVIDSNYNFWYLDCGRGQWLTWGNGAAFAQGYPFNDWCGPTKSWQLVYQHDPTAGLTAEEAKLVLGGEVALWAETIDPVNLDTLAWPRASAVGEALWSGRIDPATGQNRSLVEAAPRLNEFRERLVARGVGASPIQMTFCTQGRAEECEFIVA

MthNAG [2] = biological target: T1, MthNAG; assay: substrate inhibition kinetics, released GlcNAc by HPAEC; format: biochemical; conditions: citrate-phosphate buffer 0.1 M, pH 4.5, 50 °C
purified protein = substrate: CC(=O)N[C@H]1[C@H](Oc2ccc([N+](=O)[O-])cc2)O[C@H](CO)[C@@H](O)[C@@H]1O; assay: purified protein; format: biochemical, Thermothelomyces thermophilus; conditions: citrate-phosphate buffer 0.1 M, pH 4, 50 °C

CC(=O)N[C@H]1[C@H](Oc2ccc([N+](=O)[O-])cc2)O[C@H](CO)[C@@H](O)[C@@H]1O [GlcNAc-pNP, 4-nitrophenyl-N-acetylglucosamine]
Ki (MthNAG [1]): 1960 ± 260 µM

CC(=O)N[C@H]1[C@H](O[C@H]2[C@H](O)[C@@H](NC(C)=O)C(O)O[C@@H]2CO)O[C@H](CO)[C@@H](O)[C@@H]1O (stereo partly shown) [(GlcNAc)2]
Ki (MthNAG [2]): 500 ± 110 µM

B1: MthNAG (Thermothelomyces thermophilus ATCC 42464) (protein)
chain: T1 sequence (G2Q2L6 22-582)
notes: full-length GH20 secreted enzyme, 582-residue precursor with 21-residue signal peptide; homologously overexpressed in M. thermophila C1, purified by IEX and SEC, no tag told; most similar to XP_003658680 of strain ATCC 42464
Km (purified protein): 60 ± 10 µM | kcat (purified protein): 14.0 ± 0.7 s⁻¹

Source: PMC6097783, “β-N-Acetylglucosaminidase MthNAG from Myceliophthora thermophila C1, a thermostable enzyme for production of N-acetylglucosamine from chitin” (Applied Microbiology and Biotechnology, 2018)
